MED and EC50 data for eleven molecules are collected here from ChEMBL document CHEMBL1129472, “The structure-activity relationship between peroxisome proliferator-activated receptor gamma agonism and the antihyperglycemic activity of thiazolidinediones” (J Med Chem, 1996).

One assay is filed under the species Mus musculus. Description: Minimum effective dose required for significant reduction in blood glucose in ob/ob mice. The class given is functional.
In assay [1] the target is T1, Peroxisome proliferator-activated receptor alpha (Mus musculus, UniProt P23204).
T1 sequence (P23204 whole entry): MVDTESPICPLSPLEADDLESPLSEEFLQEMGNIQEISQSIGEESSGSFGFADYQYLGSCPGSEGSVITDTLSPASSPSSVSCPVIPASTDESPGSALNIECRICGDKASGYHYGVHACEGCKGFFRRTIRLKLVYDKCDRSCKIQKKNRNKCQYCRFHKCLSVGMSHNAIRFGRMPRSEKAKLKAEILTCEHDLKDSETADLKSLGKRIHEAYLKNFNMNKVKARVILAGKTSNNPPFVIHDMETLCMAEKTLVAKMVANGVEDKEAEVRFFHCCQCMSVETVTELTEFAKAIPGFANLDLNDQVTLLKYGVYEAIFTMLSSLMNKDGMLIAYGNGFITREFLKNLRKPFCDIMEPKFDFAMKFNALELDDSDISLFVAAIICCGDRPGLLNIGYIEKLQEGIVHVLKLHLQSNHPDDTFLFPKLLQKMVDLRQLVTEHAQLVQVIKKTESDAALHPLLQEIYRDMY
As to the kind of experiment: In vitro transcriptional activation of peroxisome proliferator activated alpha-receptor (PPAR) expressed in CV-1 cells; Inactive. Type of assay: functional, cell-based.

For assay [2], the target named is T2, Peroxisome proliferator-activated receptor gamma (Mus musculus, UniProt P37238).
T2 sequence (P37238 whole entry): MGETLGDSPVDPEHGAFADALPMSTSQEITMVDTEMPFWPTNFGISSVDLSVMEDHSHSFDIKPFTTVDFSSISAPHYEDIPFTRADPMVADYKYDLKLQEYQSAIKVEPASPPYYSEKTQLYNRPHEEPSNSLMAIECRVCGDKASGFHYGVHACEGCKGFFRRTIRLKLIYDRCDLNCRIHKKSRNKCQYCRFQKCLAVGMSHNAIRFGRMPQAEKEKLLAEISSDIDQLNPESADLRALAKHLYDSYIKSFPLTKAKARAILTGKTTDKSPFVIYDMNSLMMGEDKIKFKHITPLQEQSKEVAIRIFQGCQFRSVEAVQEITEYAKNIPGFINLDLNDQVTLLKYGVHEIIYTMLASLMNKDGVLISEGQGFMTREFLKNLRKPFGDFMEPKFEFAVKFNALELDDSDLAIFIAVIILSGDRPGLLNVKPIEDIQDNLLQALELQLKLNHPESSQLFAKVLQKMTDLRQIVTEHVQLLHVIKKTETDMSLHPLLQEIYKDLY
Description: In vitro transcriptional activation of Peroxisome proliferator activated receptor gamma (PPAR) expressed in CV-1 cells

The target of assay [3] is T3, Peroxisome proliferator-activated receptor delta (Mus musculus, UniProt P35396).
T3 sequence (P35396 whole entry): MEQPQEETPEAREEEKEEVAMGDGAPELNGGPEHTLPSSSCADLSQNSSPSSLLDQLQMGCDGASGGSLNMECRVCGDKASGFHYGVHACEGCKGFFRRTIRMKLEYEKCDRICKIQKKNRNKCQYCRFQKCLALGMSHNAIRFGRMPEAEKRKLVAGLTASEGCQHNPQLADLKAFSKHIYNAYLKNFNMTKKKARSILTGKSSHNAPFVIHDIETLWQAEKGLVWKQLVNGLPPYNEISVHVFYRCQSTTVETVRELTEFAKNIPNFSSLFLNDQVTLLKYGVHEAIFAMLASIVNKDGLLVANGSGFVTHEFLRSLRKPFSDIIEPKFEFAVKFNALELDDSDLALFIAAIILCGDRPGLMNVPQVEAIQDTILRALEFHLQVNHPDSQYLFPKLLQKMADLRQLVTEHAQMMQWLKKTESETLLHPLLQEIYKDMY
The conditions noted are these: cv-1.

Assay [4] has as its target T1, Peroxisome proliferator-activated receptor alpha. As to the kind of experiment: In vitro transcriptional activation of peroxisome proliferator activated alpha-receptor (PPAR) expressed in CV-1 cells. Type of assay: functional, cell-based.

For `CN(CCOc1ccc(/C=C2\SC(=O)NC2=O)cc1)c1ccccn1`, in the assay listed under Mus musculus, the MED was 300 µM/kg. Moreover, the EC50 result is “Not Active” in assay [1], 0.19 µM in assay [2] and “Not Active” in assay [3].
As for `O=C1NC(=O)C(Cc2ccc3c(c2)CC[C@H](Cc2ccccc2)O3)S1` (some centres not stated) [ENGLITAZONE], the results for the EC50 entry in assay [1], in assay [2] and in assay [3] were “Not Active”, 13 µM and “Not Active”, respectively.
Consider `CN(CCOc1ccc(C2SC(=O)NC2=O)cc1)c1nc2ccccc2o1` (configuration not stated), for which the MED in the assay listed under Mus musculus is greater than 1000 µM/kg. In addition, the half-maximal effective concentration (EC50) entry is “Not Active” in assay [1], 10 µM in assay [2] and “Not Active” in assay [3].
As for `CCc1ccc(CCOc2ccc(CC3SC(=O)NC3=O)cc2)nc1` (configuration not stated) [PIOGLITAZONE], the MED in the assay listed under Mus musculus is 300 µM/kg. Further, the EC50 entry in assay [1] and in assay [3] was “Not Active” each time.
In the assay filed under Mus musculus, `CN(CCCOc1ccc(CC2SC(=O)NC2=O)cc1)c1nc2ccccc2o1` (configuration not stated) registered an MED of 300 µM/kg. Also, the half-maximal effective concentration (EC50) entry in assay [1] was “Not Active”; in assay [2], 1 µM; in assay [3], “Not Active”.
Molecule `CN(CCOc1ccc(/C=C2\SC(=O)NC2=O)cc1)c1nc2ccccc2o1` had an MED in the assay listed under Mus musculus of 300 µM/kg. In addition, the figures for the concentration giving a half-maximal response (EC50) entry in assay [1], in assay [2] and in assay [3] were “Not Active”, 0.14 µM and “Not Active”, respectively.
`CN(CCOc1ccc(CC2SC(=O)NC2=O)cc1)c1ccccn1` (configuration not stated) [ROSIGLITAZONE] displayed an MED in the assay listed under Mus musculus of 3 µM/kg. In addition, in assay [1], the EC50 result was “Not Active”.
Take `CC(C)(Oc1ccc(Cl)cc1)C(=O)O` [CLOFIBRIC ACID]: the values for the EC50 in assay [4], in assay [2] and in assay [3] were 51 µM, 600 µM and “Not Active”, respectively.
In turn, `CN(CCOc1ccc(CC2SC(=O)NC2=O)cc1)c1nc2ccccc2o1` (configuration not stated) [BRL-48482] returned an MED in the assay filed under Mus musculus of 3 µM/kg. The EC50 entry in assay [1] and in assay [3] was “Not Active” in each case.
Turning to `CC1(COc2ccc(CC3SC(=O)NC3=O)cc2)CCCCC1` (configuration not stated) [CIGLITAZONE], the MED in the assay filed under Mus musculus was found to be 3000 µM/kg. Further, the results for the concentration giving a half-maximal response (EC50) entry in assay [1], in assay [2] and in assay [3] were “Not Active”, 3 µM and “Not Active”, respectively.
In the case of `O=C(O)CCC(=O)c1ccc(Oc2ccc(Cl)cc2)cc1`, the half-maximal effective concentration (EC50) was 80 µM in assay [4], 110 µM in assay [2] and “Not Active” in assay [3].

A word on the EC50: it is the concentration at which the effect is half-maximal.
